Reference: patent US8999970B2, “Administration of an anti-obesity compound to individuals with renal impairment” (Arena Pharmaceuticals, Inc., priority 2010, dated 2015)
“Also recorded” adds a separate entry of the source.

Test: Clinical trial APD356-016: plasma and urine pharmacokinetics of lorcaserin, M1 and M5 after a 10 mg dose in subjects with renal impairment
Details: for Ae0-120 / fe0-120: urine; for CL renal / AUC(0-t) / Cmax / half-life / AUC0-inf / MRT inf / Vd/F / tmax: human, 10 mg; for CL renal: plasma and urine, ClR/F; for AUC(0-t) / Cmax / half-life / AUC0-inf / MRT inf / Vd/F / tmax: plasma; for MRT inf: MRTinf; for Vd/F: Vz/F; for tmax: median
Description: The interaction of renal insufficiency with the pharmacokinetics, tolerability and safety of lorcaserin were evaluated in a formal PK study in subjects with renal impairment and in the populations studied in phase 2 and phase 3 clinical studies.
The pharmacokinetic properties of lorcaserin in subjects with varying degrees of renal impairment were evaluated in clinical trial APD356-016. At the time of study conduct and analysis, subjects were assigned to renal impairment groups based on creatinine clearance calculated using IDEAL body weight (Table 1). This calculation was used to avoid overestimation of creatinine clearance due to the excess body weight (overweight and obese subjects were enrolled in the trial). Summaries of pharmacokinetic properties by group assignment using creatinine clearance calculated using ACTUAL body weights are also provided in the sections that follow.
The FDA expects a reasonable margin between anticipated exposures and exposures that may produce toxicity. A reasonable margin can vary depending on the expected toxicity, but generally is an order of magnitude (10 times), but can sometimes be less for mild toxicity.
Table 13. Summary of Plasma Concentrations (ng/mL) of HSO3-APD356 Metabolite over Time by Group: Severe Renal Impairment Not Receiving Dialysis (see Table 13 next page)
Subject number 3140-505 was on dialysis and grouped in the end stage renal disease group.

[1] = 10 mg dose, Mild, actual BW groups
[2] = 10 mg dose, Mild, ideal BW groups
[3] = 10 mg dose, Moderate, actual BW groups
[4] = 10 mg dose, Moderate, ideal BW groups
[5] = 10 mg dose, Normal, actual BW groups
[6] = 10 mg dose, Normal, ideal BW groups
[7] = 10 mg dose, Severe N = 1, actual BW groups
[8] = 10 mg dose, Severe, ideal BW groups
[9] = Moderate N = 8, actual BW groups
[10] = oral, 10 mg dose, Mild, actual BW groups
[11] = oral, 10 mg dose, Mild, ideal BW groups
[12] = oral, 10 mg dose, Moderate, actual BW groups
[13] = oral, 10 mg dose, Moderate, ideal BW groups
[14] = oral, 10 mg dose, Normal, actual BW groups
[15] = oral, 10 mg dose, Normal, ideal BW groups
[16] = oral, 10 mg dose, Severe N = 1, actual BW groups
[17] = oral, 10 mg dose, Severe, ideal BW groups

In the case of `C[C@H]1CNCCc2ccc(Cl)cc21` [Lorcaserin, (R)-8-chloro-1-methyl-2,3,4,5-tetrahydro-1H-3-benzazepine], the “% AUC0-inf Extrapolated” value [1] was 4.54%, the Cl/F [1] was 17.3 L/h and the ClNR/F [1] was 16.7 L/h. For the same compound, the T1/2z [1] was 14.6 h, the “% AUC0-inf Extrapolated” value [2] was 3.36% and the Cl/F [2] was 13.3 L/h. The ClNR/F [2] was 12.8 L/h, the T1/2z [2] was 13.0 h and the “% AUC0-inf Extrapolated” value [3] was 3.74%. It also gave a Cl/F [3] of 18.9 L/h, a ClNR/F [3] of 18.2 L/h and a T1/2z [3] of 14.9 h. The “% AUC0-inf Extrapolated” value [4] was 4.92%, the Cl/F [4] was 17.7 L/h and the ClNR/F [4] was 17.0 L/h. The T1/2z [4] was 15.9 h, the “% AUC0-inf Extrapolated” value [5] was 3.57% and the Cl/F [5] was 15.6 L/h. The ClNR/F [5] was 15.1 L/h, the T1/2z [5] was 12.1 h and the “% AUC0-inf Extrapolated” value [6] was 3.81%. It also gave a Cl/F [6] of 17.5 L/h, a ClNR/F [6] of 17.1 L/h and a T1/2z [6] of 11.0 h. The “% AUC0-inf Extrapolated” value [7] was 3.70%, the Cl/F [7] was 17.6 L/h and the ClNR/F [7] was 17.2 L/h. For the same compound, the T1/2z [7] was 18.8 h, the “% AUC0-inf Extrapolated” value [8] was 3.59% and the Cl/F [8] was 19.7 L/h. For the same compound, the ClNR/F [8] was 19.0 L/h, the T1/2z [8] was 15.0 h and the Ae0-120 [1] was 297 µg. It also gave a fe0-120 [1] of 0.0352, an Ae0-120 [2] of 326 µg and a fe0-120 [2] of 0.0386. It also gave an Ae0-120 [3] of 304 µg, a fe0-120 [3] of 0.0360 and an Ae0-120 [4] of 327 µg. The fe0-120 [4] was 0.0387, the Ae0-120 [5] was 257 µg and the fe0-120 [5] was 0.0304. For the same compound, the Ae0-120 [6] was 185 µg, the fe0-120 [6] was 0.0220 and the Ae0-120 [7] was 204 µg. It also gave a fe0-120 [7] of 0.0242, an Ae0-120 [8] of 280 µg and a fe0-120 [8] of 0.0332. The Removal by hemodialysis (ESRD) was “not removed; also recorded: not cleared”, the “Geometric Mean Ratio of LSM (90% CI), AUC0-inf, relative to Normal Renal Function Group” value (Mild N = 10, actual BW groups) was 0.921 (0.735, 1.15) and the “Geometric Mean Ratio of LSM (90% CI), AUClast, relative to Normal Renal Function Group” value (Mild N = 10, actual BW groups) was 0.912 (0.723, 1.15). The “Geometric Mean Ratio of LSM (90% CI), Cmax, relative to Normal Renal Function Group” value (Mild N = 10, actual BW groups) was 0.819 (0.652, 1.03), the “Geometric Mean Ratio of LSM (90% CI), AUC0-inf, relative to Normal Renal Function Group” value (Mild, ideal BW groups) was 1.30 (1.01, 1.67) and the “Geometric Mean Ratio of LSM (90% CI), AUClast, relative to Normal Renal Function Group” value (Mild, ideal BW groups) was 1.31 (1.01, 1.69). The “Geometric Mean Ratio of LSM (90% CI), Cmax, relative to Normal Renal Function Group” value (Mild, ideal BW groups) was 0.991 (0.764, 1.29), the “Geometric Mean Ratio of LSM (90% CI), AUC0-inf, relative to Normal Renal Function Group” value [9] was 0.869 (0.683, 1.11) and the “Geometric Mean Ratio of LSM (90% CI), AUClast, relative to Normal Renal Function Group” value [9] was 0.868 (0.678, 1.11). The “Geometric Mean Ratio of LSM (90% CI), Cmax, relative to Normal Renal Function Group” value [9] was 0.738 (0.579, 0.941), the “Geometric Mean Ratio of LSM (90% CI), AUC0-inf, relative to Normal Renal Function Group” value (Moderate, ideal BW groups) was 1.03 (0.806, 1.32) and the “Geometric Mean Ratio of LSM (90% CI), AUClast, relative to Normal Renal Function Group” value (Moderate, ideal BW groups) was 1.02 (0.791, 1.32). The “Geometric Mean Ratio of LSM (90% CI), Cmax, relative to Normal Renal Function Group” value (Moderate, ideal BW groups) was 0.697 (0.537, 0.904), the “Geometric Mean Ratio of LSM (90% CI), AUC0-inf, relative to Normal Renal Function Group” value (Severe N = 1, actual BW groups) was 0.861 (0.494, 1.50) and the “Geometric Mean Ratio of LSM (90% CI), AUClast, relative to Normal Renal Function Group” value (Severe N = 1, actual BW groups) was 0.861 (0.487, 1.52). The “Geometric Mean Ratio of LSM (90% CI), Cmax, relative to Normal Renal Function Group” value (Severe N = 1, actual BW groups) was 0.468 (0.267, 0.821), the “Geometric Mean Ratio of LSM (90% CI), AUC0-inf, relative to Normal Renal Function Group” value (Severe, ideal BW groups) was 0.931 (0.727, 1.19) and the “Geometric Mean Ratio of LSM (90% CI), AUClast, relative to Normal Renal Function Group” value (Severe, ideal BW groups) was 0.933 (0.723, 1.20). For the same compound, the “Geometric Mean Ratio of LSM (90% CI), Cmax, relative to Normal Renal Function Group” value (Severe, ideal BW groups) was 0.686 (0.529, 0.891), the CL renal [10] was 10.3 mL/min and the CL renal [11] was 8.88 mL/min. The CL renal [12] was 11.1 mL/min, the CL renal [13] was 11.1 mL/min and the CL renal [14] was 7.8 mL/min. For the same compound, the CL renal [15] was 6.53 mL/min, the CL renal [16] was 7.27 mL/min and the CL renal [17] was 11 mL/min. The AUC(0-t) (AUC24 hr, ESRD, 10 mg QD Authentic, Day 1) was 618 ng·h/mL, the AUC(0-t) (AUC24 hr, Mild, 10 mg QD Authentic, Day 1) was 623 ng·h/mL and the AUC(0-t) (AUC24 hr, Moderate, 10 mg QD Authentic, Day 1) was 515 ng·h/mL. The AUC(0-t) (AUC24 hr, Normal, 10 mg QD Authentic, Day 1) was 482 ng·h/mL, the AUC(0-t) (AUC24 hr, Severe, 10 mg QD Authentic, Day 1) was 469 ng·h/mL and the Cmax (ESRD, 10 mg QD Authentic, Day 1) was 27.2 ng/mL. It also gave a Cmax (Mild, 10 mg QD Authentic, Day 1) of 36.3 ng/mL, a Cmax (Moderate, 10 mg QD Authentic, Day 1) of 26.2 ng/mL and a Cmax (Normal, 10 mg QD Authentic, Day 1) of 37 ng/mL. The Cmax (Severe, 10 mg QD Authentic, Day 1) was 26.4 ng/mL, the half-life (t1/2, ESRD, 10 mg QD Authentic, Day 1) was 43.8 h and the half-life (t1/2, Mild, 10 mg QD Authentic, Day 1) was 13 h. For the same compound, the half-life (t1/2, Moderate, 10 mg QD Authentic, Day 1) was 15.9 h, the half-life (t1/2, Normal, 10 mg QD Authentic, Day 1) was 11 h and the half-life (t1/2, Severe, 10 mg QD Authentic, Day 1) was 15 h. The AUC0-inf [10] was 535 ng·h/mL, the AUC0-inf [11] was 644 ng·h/mL and the AUC0-inf [12] was 516 ng·h/mL. The AUC0-inf [13] was 538 ng·h/mL, the AUC0-inf [14] was 569 ng·h/mL and the AUC0-inf [15] was 501 ng·h/mL. The AUC0-inf [16] was 478 ng·h/mL, the AUC0-inf [17] was 486 ng·h/mL and the AUC(0-t) (oral, AUC0-t, 10 mg dose, Mild, actual BW groups) was 513 ng·h/mL. It also gave an AUC(0-t) (oral, AUC0-t, 10 mg dose, Mild, ideal BW groups) of 623 ng·h/mL, an AUC(0-t) (oral, AUC0-t, 10 mg dose, Moderate, actual BW groups) of 497 ng·h/mL and an AUC(0-t) (oral, AUC0-t, 10 mg dose, Moderate, ideal BW groups) of 515 ng·h/mL. It also gave an AUC(0-t) (oral, AUC0-t, 10 mg dose, Normal, actual BW groups) of 549 ng·h/mL, an AUC(0-t) (oral, AUC0-t, 10 mg dose, Normal, ideal BW groups) of 482 ng·h/mL and an AUC(0-t) (oral, AUC0-t, 10 mg dose, Severe N = 1, actual BW groups) of 461 ng·h/mL. For the same compound, the AUC(0-t) (oral, AUC0-t, 10 mg dose, Severe, ideal BW groups) was 469 ng·h/mL, the Cmax [10] was 30.2 ng/mL and the Cmax [11] was 36.3 ng/mL. It also gave a Cmax [12] of 27.6 ng/mL, a Cmax [13] of 26.2 ng/mL and a Cmax [14] of 36 ng/mL. For the same compound, the Cmax [15] was 37 ng/mL, the Cmax [16] was 16.4 ng/mL and the Cmax [17] was 26.4 ng/mL. The MRT inf [10] was 19.3 h, the MRT inf [11] was 18 h and the MRT inf [12] was 20.8 h. The MRT inf [13] was 21.1 h, the MRT inf [14] was 16.5 h and the MRT inf [15] was 14.8 h. It also gave an MRT inf [16] of 30.8 h, an MRT inf [17] of 21.7 h and a Vd/F [10] of 361 L. For the same compound, the Vd/F [11] was 248 L, the Vd/F [12] was 381 L and the Vd/F [13] was 399 L. The Vd/F [14] was 266 L, the Vd/F [15] was 276 L and the Vd/F [16] was 479 L. It also gave a Vd/F [17] of 401 L, a tmax [10] of 2.5 h and a tmax [11] of 4.5 h. The tmax [12] was 2.5 h, the tmax [13] was 2.5 h and the tmax [14] was 2 h. The tmax [15] was 2 h, the tmax [16] was 4 h and the tmax [17] was 3 h. The Fractional excretion (normal renal function) was 2.2%.
